# Experimental data published in US5760241A, “Thiol derivatives with metallopeptidase inhibitory activity” (priority 1996, dated 1998).
# pIC50: −log10 of the molar value.
# Key:
# [1] = biological target: T1, ACE (purified by lung rabbit, EC 3.4.15.1) (Oryctolagus cuniculus, UniProt P12822); test: In vitro ACE-inhibitory activity (FAPGG substrate, spectrophotometric); format: biochemical; conditions: 37° C.; FAPGG 0.8 mM
# T1 construct: purchased SIGMA; host or cells: rabbit lung
# T1 sequence (P12822 34-1310): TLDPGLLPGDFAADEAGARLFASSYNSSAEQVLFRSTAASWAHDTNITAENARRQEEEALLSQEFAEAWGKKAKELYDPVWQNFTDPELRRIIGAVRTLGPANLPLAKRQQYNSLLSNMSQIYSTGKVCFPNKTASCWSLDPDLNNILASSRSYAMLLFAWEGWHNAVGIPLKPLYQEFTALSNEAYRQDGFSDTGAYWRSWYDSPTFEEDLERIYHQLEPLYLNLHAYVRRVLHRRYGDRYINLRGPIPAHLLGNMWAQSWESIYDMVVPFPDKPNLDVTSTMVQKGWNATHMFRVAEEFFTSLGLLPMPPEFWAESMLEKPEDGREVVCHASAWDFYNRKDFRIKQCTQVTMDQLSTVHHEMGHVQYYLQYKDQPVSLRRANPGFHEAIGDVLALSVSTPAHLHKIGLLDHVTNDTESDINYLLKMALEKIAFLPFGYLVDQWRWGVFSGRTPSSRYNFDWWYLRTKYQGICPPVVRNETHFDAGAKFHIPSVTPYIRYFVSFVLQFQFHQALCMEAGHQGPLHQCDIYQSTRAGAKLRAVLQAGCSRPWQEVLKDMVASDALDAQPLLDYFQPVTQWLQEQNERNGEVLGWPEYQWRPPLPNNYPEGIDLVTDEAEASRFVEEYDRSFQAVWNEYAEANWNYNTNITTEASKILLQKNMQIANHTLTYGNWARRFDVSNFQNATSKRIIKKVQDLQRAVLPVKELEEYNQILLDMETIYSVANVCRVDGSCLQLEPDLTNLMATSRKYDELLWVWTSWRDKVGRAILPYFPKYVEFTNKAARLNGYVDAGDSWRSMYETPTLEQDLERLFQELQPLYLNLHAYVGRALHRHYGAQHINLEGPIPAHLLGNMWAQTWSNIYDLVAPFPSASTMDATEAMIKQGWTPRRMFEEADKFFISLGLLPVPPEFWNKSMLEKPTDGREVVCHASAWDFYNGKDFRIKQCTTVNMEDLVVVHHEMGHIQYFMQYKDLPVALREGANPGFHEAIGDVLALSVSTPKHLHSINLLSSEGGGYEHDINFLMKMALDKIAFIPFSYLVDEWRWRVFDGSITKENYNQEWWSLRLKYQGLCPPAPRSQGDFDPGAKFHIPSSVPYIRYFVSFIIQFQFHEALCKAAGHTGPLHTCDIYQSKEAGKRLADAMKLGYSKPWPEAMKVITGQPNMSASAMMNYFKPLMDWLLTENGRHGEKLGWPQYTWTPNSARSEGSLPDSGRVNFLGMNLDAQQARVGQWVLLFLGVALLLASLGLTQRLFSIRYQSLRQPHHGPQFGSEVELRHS
# Procedure: (§1) b) ACE-inhibitory activity
# The ACE-inhibitory activity was evaluated according to the method reported in the literature by B. Holmquist et al., in Analytical Biochemistry 95, 540-548 (1979).
# […] of ACE (250 mU/ml purified by lung rabbit, EC 3.4.15.1 SIGMA) were preincubated with 50 μl of the compound of formula I or of the comparison compound in thermostated cuvettes at 37° C.
# The reaction was started by adding furylacryloylphenylalanylglycylglycine 0.8 mM (FAPGG-SIGMA).
# Contemporaneously, by using a Beckman DU-50 spectrophotometer provided with a program for calculating delta A/minutes and regression coefficients of the enzyme kinetics curves, the absorbance at 340 nm was recorded in continuo for 5 minutes.
# The percentage of the enzyme inhibition in the preparations treated with the compounds of formula I or with the comparative compounds with respect to the untreated preparations was expressed as IC50 (nM) value.
# ACE (SHR lungs) = test: Ex vivo ACE-inhibitory activity in lungs of treated SHR; parameters: species or system spontaneously hypertensive rats (SHR); conditions: i.v. 0.64 μmoles/kg, 5 minutes
# Procedure: The ex vivo ACE/NEP-inhibitory activity of the compounds of formula I, in particular, was evaluated by considering the enzymatic activity in tissue homogenates (lung and kidney for the ACE- and NEP-inhibitory activity, respectively) from spontaneously hypertensive rats (SHR), treated with the tested compounds by intravenous or oral route.
# as §1
# The ex vivo ACE-inhibitory activity was evaluated by using a radiometric assay method, as reported in the literature by J. W. Ryan et al. in Biochem. J. (1977), 167, 501-504.
# The inhibitory activity of the compounds of formula I was evaluated in lungs of spontaneously hypertensive rats (SHR), 5 minutes after i.v. injection (0.6, 0.64 and 21 μmoles/kg) and 30 minutes, 60 minutes and 4 hours after oral administration (30 μmoles/kg) of the tested compounds.
# After the removal of the lungs from SHR, the lung tissue was homogenized and incubated for 2 hours at 37° C. in the presence of [^3 H]Hyp-Gly-Gly, as a substrate.
# The reaction was stopped by adding hydrochloric acid.
# The released radiolabelled hyppuric acid was extracted with ethyl acetate and counted by liquid scintillation spectrometry, according to conventional methods.
# The ACE-inhibitory activity of the tested compounds was expressed as percentage of ACE-inhibition in SHR lungs.
# As an example, the percentages of basal enzymatic activity obtained in the ex vivo tests after the administration of compounds 29 and 41, as representative compounds of formula I, and of the comparison compounds R-1, R-2, R-3 and R-4 are reported in the following table 2.
smiles,measurement,setting,value
O=C(N[C@@H](Cc1ccc(-c2ccccc2)cc1)C(=O)O)C(CS)Cc1ccccc1 (some centres unmarked) [compound 41],pIC50,[1],8.30
same,"ACE-inhibition (lungs), 5 minutes",ACE (SHR lungs),49%
